# According to US20080175800A1, “USE OF SPECIFIC MENTHYL 3-OXOCARBOXYLIC ACID ESTERS AS PHYSIOLOGICALLY ACTIVE COOLING SUBSTANCES” (SYMRISE GmbH & Co. KG, priority 2007, published 2008):
# How the values were obtained:
# [1] = Sensory evaluation in confectioner's fondant by a panel of experts (cooling action); assay type: in vivo; conditions: 0.05 wt. % in confectioner's fondant; for cooling action: scale from 1 (no cooling action) to 9 (extremely strong cooling action)
# Protocol: The compounds from Examples 1 and 2 were tested for their sensory properties, in particular their cooling action. To this end, they were dissolved, in each case in a specific final concentration, in a mass prepared from sucrose (saccharose) and water (confectioner's fondant, supplier Nordzucker AG, Nordstemmen) and evaluated by a panel of experts. Sensory impressions were rated and the cooling action was assessed on a scale from 1 (no cooling action) to 9 (extremely strong cooling action).
# [2] = Skin-cooling characteristics, application site forearm; assay type: in vivo; conditions: forearm of human test subjects; compared with L-menthyl lactate (Frescolat ML)
Compound,cooling action [1],skin intensity of cooling [2],onset and duration of cooling action ([1]; compared with Example 1)
"CC(=O)CC(=O)O[C@@H]1C[C@H](C)CC[C@H]1C(C)C [Example 1, (L)-menthyl 3-oxo-butyrate]",5-6,overall weaker intensity of cooling,
"CCC(=O)CC(=O)O[C@@H]1C[C@H](C)CC[C@H]1C(C)C [Example 2, (L)-menthyl 3-oxo-pentanoate]",5-6,overall weaker intensity of cooling,slower onset but longer lasting than Example 1
